Columns and labels:
Format in all cases: in vivo
[1] = system: American drywood termites (Cryptotermes brevis); assay: Termite control fumigation test, Cryptotermes brevis; details: Example 6
Source text: c) American drywood termites (Cryptotermes brevis)=CRYPBR, and Incisitermes tabogae=INCITA
(§1) The test organisms, separated by species, were placed into a glass vessel measuring 30 cm×30 cm×60 cm, which was sealed with a glass lid so as to be airtight. The adults and the larvae of the mealworm beetle (Tenebrio molitor) and the broad-horned flour beetle (Gnathocerus cornutus) were placed into small glass vessels approximately 5 cm in diameter, which were closed with a gauze lid and in which they could freely move about. The larvae of the rice weevil had burrowed into seeds of grain. The wood pest larvae were inserted into small blocks of wood measuring 5 cm×2.5 cm×2 cm. The openings were sealed with wads of cotton wool. Only one each of the larvae of the house longhorn beetle (Hylotrupes bajulus) was inserted into a piece of wood, while 6-8 larvae of the common furniture beetle (Anobium punctatum) were inserted into each piece of wood.
(§2) The respective gas was then introduced into the fumigation vessel through a gas line from a gas tank that contained the specified amount of gas. After a defined time period, the fumigation vessel was purged with compressed air. The discharged gas was purified by an attached gas scrubber.
(§3) The beetles were observed until they died. This point was recorded for each species. The larvae of the wood pests as well as the larvae of the rice weevil (Sitophilus oryzae) had to be picked out of the wood or the grain to check their condition. If any of the animals were still alive, the wooden test blocks remaining in the vessel were fumigated again and were reexamined after the corresponding time span had elapsed. The same number of animals in the untreated control was also checked at each point.
(§4) The vitality of the animals was checked at certain time intervals. The beetles could be observed through the fumigation vessel. This was also true for the larvae of the mealworm beetle and the broad-horned flour beetle. The wooden test blocks of the wood pest larvae were opened with hammer and chisel. Tweezers were used to pull the rice weevil larvae out of the grain seeds. The exact time intervals and the number of the evaluated pests were documented in the test results.

[2] = system: Broad-horned flour beetle (Gnathocerus cornutus) larvae; assay: Fumigation test in glass vessel, broad-horned flour beetle larvae; details: GNATCO larvae
wood and storage pests = assay: Fumigation test, wood and storage pests (overall statements)
Source text: as §1, §2, §3, §4

[3] = system: House longhorn beetle (Hylotrupes bajulus); assay: Fumigation test in glass vessel, house longhorn beetles
[4] = system: Common furniture beetle (Anobium punctatum) larvae; assay: Fumigation test in glass vessel, common furniture beetle larvae in wood blocks; details: ANOBPU larvae in wood blocks
[5] = CRYPBR termites, ACF 50.0/53.8 g/m^3, SF 47.8/44.8 g/m^3 (1st/2nd fumigation), 23.7/24° C.
[6] = Example 4, gas 36.5 g/m^3, 19.3° C., 54% rel. air humidity
[7] = Example 5, ACF 50.6/48.2/51.4 g/m^3, SF 47.4/44.6/41 g/m^3 (1st/2nd/3rd fumigation), 23/23/22° C.
[8] = Example 7, ACF 53.0/54.6/0 g/m^3, second gas (SF) 43.6/41.4/39.8 g/m^3 (1st/2nd/3rd fumigation), 20.0/20.2/19.8 C.
[9] = HYLOBA beetles, Example 5, ACF 50.6/48.2/51.4 g/m^3, SF 47.4/44.6/41 g/m^3 (1st/2nd/3rd fumigation), 23/23/22° C.
[10] = HYLOBA beetles, Example 7, ACF 53.0/54.6/0 g/m^3, second gas (SF) 43.6/41.4/39.8 g/m^3 (1st/2nd/3rd fumigation), 20.0/20.2/19.8 C.

`CC(=O)F` [ACF, acetyl fluoride] was tested, and the “Number alive, 30 min. after 1st Fumigation” value [1, 5] was 180, the “Number alive, 1 hr. after 1st Fumigation” value [1, 5] was 60 and the “Number alive, 3 hrs. after 1st Fumigation” value [1, 5] was 0. For the same compound, the “Number dead, 30 min. after 1st Fumigation” value [1, 5] was 0, the “Number dead, 1 hr. after 1st Fumigation” value [1, 5] was 0 and the “Number dead, 3 hrs. after 1st Fumigation” value [1, 5] was 120. The “Effectiveness against Cryptotermes” value [1] was “particularly effective”, the “Condition of Cryptotermes on reexamination after 24-hour observation period” value ([1]; animals fumigated 1 hour, then 24-hour observation) was “dead” and the “Number alive, 1 hr. after Start of Fumigation” value [2, 6] was 0. For the same compound, the “Number dead, 1 hr. after Start of Fumigation” value [2, 6] was 25, the “Number alive, 30 min. after Start of Fumigation” value [2, 7] was 0 and the “Number dead, 30 min. after Start of Fumigation” value [2, 7] was 15. The “Number alive, 30 min. after 1st Fumigation” value [2, 8] was 0, the “Number dead, 30 min. after 1st Fumigation” value [2, 8] was 15 and the “Effectiveness against exposed beetles and larvae” value (wood and storage pests; Conclusion of Examples 1-5) was “very effective”. The “Comparison of action on wood and storage pests” value (wood and storage pests; Example 7, against several of the pest species tested) was “superior to chlorodifluoroacetyl fluoride”, the “Time after which the house longhorn beetles were dead” value ([3]; Example 4, 3 house longhorn beetles, gas 36.5 g/m^3, 19.3° C.) was 15 min and the “Number alive, 30 min. after Start of Fumigation” value [3, 9] was 0. The “Number dead, 30 min. after Start of Fumigation” value [3, 9] was 4, the “Number alive, 30 min. after 1st Fumigation” value [3, 10] was 3 and the “Number alive, 1 hr. after 1st Fumigation” value [3, 10] was 0. For the same compound, the “Number dead, 30 min. after 1st Fumigation” value [3, 10] was 3, the “Number dead, 1 hr. after 1st Fumigation” value [3, 10] was 6 and the “Number alive, 1 hr. after Start of Fumigation” value [4, 7] was 1. For the same compound, the “Number alive, 3 hrs. after Start of Fumigation” value [4, 7] was 2, the “Number alive, 6 hrs after Start of Fumigation” value [4, 7] was 0 and the “Number dead, 1 hr. after Start of Fumigation” value [4, 7] was 3. The “Number dead, 3 hrs. after Start of Fumigation” value [4, 7] was 2, the “Number dead, 6 hrs after Start of Fumigation” value [4, 7] was 8 and the “Number alive, 1 hr. after 1st Fumigation” value [4, 8] was 5. The “Number alive, 3 hrs. after 1st Fumigation” value [4, 8] was 2, the “Number alive, 6 hrs after 1st Fumigation” value [4, 8] was 4 and the “Number dead, 1 hr. after 1st Fumigation” value [4, 8] was 1. For the same compound, the “Number dead, 3 hrs. after 1st Fumigation” value [4, 8] was 4 and the “Number dead, 6 hrs after 1st Fumigation” value [4, 8] was 2.

— patent US20030017186A1, “Carboxylic acid fluorides as pesticides” (priority 1999, published 2003)
